Laboratory results published in patent US20070248680A1, “Particles for Inactivating Toxins” (Board of Regents, The University of Texas System, priority 2005, published 2007).
Entries after “also recorded” stand apart in the source; their conditions may differ.

Legend:
[1] = Persistence of FITC-BSA tagged particles in blood after intravenous introduction (fluorometry); type: in vivo; details: Balb/C mice, about 5.0 micrometer particles
Protocol: One feature of the present invention is that a particle preparation of the present invention is capable of remaining in the host for a length of time, longer than proteins, antibodies, vaccines, or antimicrobials are known to last in a mammalian host. […] Particle were tagged by conjugating with FITC-labeled bovine serum albumin (BSA) protein. […] The amount of BSA present in each sample was assessed by fluorometry. The tagged particles in FIG. 5A were FITC-BSA conjugated to NIPA particles of about 5.0 micrometers (typical diameter). […] In addition, greater than 20% of the BSA-NIPA particles were still present in the blood after two weeks.

BSA antibody = assay: Removal of free BSA antibody from serum of BSA-immunized mice (ELISA); type: in vivo, Balb/C mice; details: for time to removal of circulating BSA antibodies from serum / effect on free and circulating BSA antibody in serum: tail vein injection; for time to removal of circulating BSA antibodies from serum: FIG. 8B; for effect on free and circulating BSA antibody in serum: NIPA about 5 micrometers, PLLA about 10 micrometers, HA about 250 nanometers
Text: Another feature of the present invention is that selective tagging of particles of the present invention provides for the removal of select and specific unwanted products or toxins (e.g., unwanted proteins or antibodies) from a host. […] Following injection, mice (at least five mice per group) were sacrificed beginning on day one and continued to day 21. Serum samples from each mouse were recovered via retro-orbital blood collection. Sera was then used to measure the amount of free BSA antibody in the blood by standard enzyme-linked immuno-sorbent assay. FIGS. 8A and 8B are representative examples of the efficacy of specifically tagged particles, in which tagged particles are capable of removing a specific antibody present in serum.

collagen antibody = assay: Removal of collagen antibodies from circulation of collagen-immunized mice; type: in vivo, Balb/C mice; details: week 7, one week after intravenous injection of about 2.0 mg particles/0.5 mL; about 100 nanometer NIPA
Protocol: In still another example, Balb/C mice were immunized with bovine skin collagen following a standard immunization procedure as is known to one of ordinary skill in the art. At one week following immunization, mice began to produce antibodies against collagen. At the end of week 6 as depicted by the arrow in FIGS. 9A and 9B, mice were injected intravenously (via the tail vein) with particles tagged with and without bovine Type I collagen. Intravenous doses were about 2.0 mg particles/0.5 mL. FIGS. 9A and 9B are representative examples showing the in vivo efficacy of specifically tagged particles and their ability to remove a particular unwanted antibodies from circulation after allowing the unwanted antibody concentration to accumulate for six weeks. […] Histologic analyses of tissue samples collected from some representative animals, including samples from the kidneys, lung, liver, brain, intestines, heart and spleen, were examined for particles. […] These animals were also able to degrade the particle preparation (predominantly in the liver) and eliminate by-products of the preparation via hydrolysis (data not shown).
In FIG. 9B, the conditions as described for FIG. 9A were repeated using particle preparations tagged comprising HPC particles of 1-5 micrometers (typical diameter) conjugated with collagen (HPC-collagen) or untagged particles (HPC) injected into mice.

BSA antibodies = assay: Protein adsorption from BSA antisera onto particles, SDS-PAGE of eluted proteins; type: binding, Balb/C mice; details: serum of BSA-immunized mice, about 2 hours incubation, about 5 micrometer particles
Protocol: Another feature is that a tagged particle of the present invention may specifically recognize proteins or other host components of interest and as desired. For example, tagged particles were made to recover or eliminate BSA antibodies from immunized animals. First, Balb/C mice were immunized with bovine serum albumin (BSA) protein for four weeks to trigger BSA antibody production. Two weeks later, mice were sacrificed and their serum was recovered for analyses. […] After incubation for at least about 2 hours, particles were recovered by centrifugation. From a portion of each sample of recovered particles, proteins were eluted. Particles and eluted proteins were analyzed by SDS-PAGE gel electrophoresis to identify proteins that had adsorbed to the particles.
In FIG. 6, lane 1 is diluted mouse sera in PBS at concentration of 1 mg/mL; lanes 2, 5 and 7 depict proteins eluted from NIPA microparticles preincubated with antisera from three different mice; lanes 3, 4 and 6 depict proteins eluted from NIPA-BSA microparticles preincubated with antisera from three different mice. Lanes 2 and 3 are samples from a first mouse, lanes 4 and 5 are samples from a second mouse, and lanes 6 and 7 are samples from a third mouse.
In another example depicting the specific recognition of tagged particles, a similar immunization strategy was used. […] Eluted proteins were analyzed using SDS-PAGE gel electrophoresis. […]

| Substance | particles still present in the blood after two weeks [1] | time to removal of circulating BSA antibodies from serum (BSA antibody) | effect on free and circulating BSA antibody in serum (BSA antibody) | further results |
| --- | --- | --- | --- | --- |
| BSA-HPC: HPC particles (approximately 5.0 micrometers) conjugated to BSA | greater than 20% | – | – | – |
| PLLA-BSA: PLLA microparticles (approximately 10 micrometer) tagged with BSA | – | less than a week | – | – |
| HA-BSA: HA nanoparticles (approximately 250 nanometers) tagged with BSA | – | less than a week | – | – |
| NP-Collagen: NIPA particles (approximately 100 nanometers) conjugated with bovine Type I collagen | – | – | – | reduction of collagen antibody concentration (collagen antibody): greater than 75% |
| bovine serum albumin [BSA, reference compound] | – | – | did little to effect; also recorded: none of the untagged particles (HA, NIPA, PLLA) or BSA alone (BSA) when injected into a host were able to significantly effect | – |
| BSA-NIPA: FITC-BSA conjugated to NIPA particles of about 5.0 micrometers typical diameter | greater than 20% | less than a week | virtually complete by day 2 | free BSA antibodies in the serum (BSA antibody; tail vein injection at 6 weeks, about 5 micrometer particles, FIG. 8A): < 5%; time remained in the circulation ([1]; FIG. 5A): at least 2 weeks; proteins adsorbed to or recognized by particles (BSA antibodies; listed as BSA-NIPA microparticles): recognized a number of proteins, especially those representing immunoglobulin G; proteins adsorbed to or recognized by particles (BSA antibodies; listed as NIPA-BSA microparticles): recognized more proteins |
